What was measured:
[1] = test system: Oryza sativa, (L.) Tebonnet; experiment: Rice tolerance to post-transplant applications under flooded paddy conditions (Example 187), ORYSAT (Rice, Tebonnet); details: for herbicidal effect rating ORYSAT: rated 3-4 weeks after treatment; for ORYSAT: herbicidal effect rating 0-9, three to four weeks after treatment; as to herbicidal effect rating ORYSAT: meaning of each grade not given here
[2] = test system: Monochoria vaginalis, Presl.; experiment: Preemergence weed control under flooded paddy conditions, MOOVA (Monochoria); format: in vivo; details: flooded paddy; for herbicidal effect rating, MOOVA: preemergence, rated 3-4 weeks after treatment; for MOOVA: preemergence weeds, herbicidal effect rating 0-9, three to four weeks after treatment
Cyperus iria = experiment: Preemergence weed control under flooded paddy conditions, CYPIR (Rice Flatsedge); format: in vivo; details: flooded paddy; for herbicidal effect rating, CYPIR: preemergence, rated 3-4 weeks after treatment; for CYPIR: preemergence weeds, herbicidal effect rating 0-9, three to four weeks after treatment
Sagittaria pygmaea, L. = experiment: Preemergence weed control under flooded paddy conditions, SAGPY (Arrowhead (Pygmaea)); format: in vivo; details: flooded paddy; for herbicidal effect rating, SAGPY: preemergence, rated 3-4 weeks after treatment; for SAGPY: preemergence weeds, herbicidal effect rating 0-9, three to four weeks after treatment
[3] = test system: Echinochloa oryzoides (Ard.) Fritsch.; experiment: Preemergence weed control under flooded paddy conditions, ECHORC (Watergrass (Calif.)); format: in vivo; details: flooded paddy; for herbicidal effect rating, ECHORC: preemergence, rated 3-4 weeks after treatment; for ECHORC: preemergence weeds, herbicidal effect rating 0-9, three to four weeks after treatment
[4] = test system: Cyperus serotinus, Rottb.; experiment: Preemergence weed control under flooded paddy conditions, CYPSE (Flatsedge); format: in vivo; details: for herbicidal effect rating, CYPSE: preemergence, rated 3-4 weeks after treatment; for CYPSE: preemergence weeds, herbicidal effect rating 0-9, three to four weeks after treatment

## CC=CCOC(=O)C(C)(C)Oc1ccc(C)cc1-c1nsc2ccc(-n3c(=O)cc(C(F)(F)F)n(C)c3=O)cc12 [Example 529, Propionic acid, 2-{{2-{5-[3,6-dihydro-3-methyl-2,6-dioxo-4-(trifluoromethyl)-1(2H)-pyrimidinyl]-1,2-benzisothiazol-3-yl}-p-tolyl}oxy}-2-methyl-, 2-butenyl ester]
[1]; Rate 0.0320 kg/ha
  herbicidal effect rating ORYSAT: 0.0
[1]; Rate 0.0620 kg/ha
  herbicidal effect rating ORYSAT: 0.0
[1]; Rate 0.1250 kg/ha
  herbicidal effect rating ORYSAT: 3.0
[1]; Rate 0.2500 kg/ha
  herbicidal effect rating ORYSAT: 9.0
[2]; Rate 0.0320 kg/ha
  herbicidal effect rating, MOOVA: 3.0
[2]; Rate 0.0620 kg/ha
  herbicidal effect rating, MOOVA: 3.0
[2]; Rate 0.1250 kg/ha
  herbicidal effect rating, MOOVA: 3.0
[2]; Rate 0.2500 kg/ha
  herbicidal effect rating, MOOVA: 0.0
Cyperus iria; Rate 0.0320 kg/ha
  herbicidal effect rating, CYPIR: 3.0
Cyperus iria; Rate 0.0620 kg/ha
  herbicidal effect rating, CYPIR: 3.0
Cyperus iria; Rate 0.1250 kg/ha
  herbicidal effect rating, CYPIR: 3.0
Cyperus iria; Rate 0.2500 kg/ha
  herbicidal effect rating, CYPIR: 0.0
Sagittaria pygmaea, L.; Rate 0.0320 kg/ha
  herbicidal effect rating, SAGPY: 9.0
Sagittaria pygmaea, L.; Rate 0.0620 kg/ha
  herbicidal effect rating, SAGPY: 9.0
Sagittaria pygmaea, L.; Rate 0.1250 kg/ha
  herbicidal effect rating, SAGPY: 9.0
Sagittaria pygmaea, L.; Rate 0.2500 kg/ha
  herbicidal effect rating, SAGPY: 9.0
[3]; Rate 0.0320 kg/ha
  herbicidal effect rating, ECHORC: 7.0
[3]; Rate 0.0620 kg/ha
  herbicidal effect rating, ECHORC: 9.0
[3]; Rate 0.1250 kg/ha
  herbicidal effect rating, ECHORC: 9.0
[3]; Rate 0.2500 kg/ha
  herbicidal effect rating, ECHORC: 9.0
[4]; Rate 0.0320 kg/ha
  herbicidal effect rating, CYPSE: 0.0
[4]; Rate 0.0620 kg/ha
  herbicidal effect rating, CYPSE: 0.0
[4]; Rate 0.1250 kg/ha
  herbicidal effect rating, CYPSE: 0.0
[4]; Rate 0.2500 kg/ha
  herbicidal effect rating, CYPSE: 0.0

## Cn1c(C(F)(F)F)cc(=O)n(-c2ccc3snc(C(=O)NS(=O)(=O)Cc4ccc(C(C)(C)C)cc4)c3c2)c1=O [Example 405, 1,2-Benzisothiazole-3-carboxamide, N-[(p-tert-butylbenzyl)sulfonyl]-5-[3,6-dihydro-3-methyl-2,6-dioxo-4-(trifluoromethyl)-1(2H)-pyrimidinyl]-]
[1]; 0.0320 kg/ha
  ORYSAT: 0.0
[1]; 0.0620 kg/ha
  ORYSAT: 0.0
[1]; 0.1250 kg/ha
  ORYSAT: 2.0
[1]; 0.2500 kg/ha
  ORYSAT: 2.0
[2]; 0.0320 kg/ha
  MOOVA: 6.0
[2]; 0.0620 kg/ha
  MOOVA: 6.0
[2]; 0.1250 kg/ha
  MOOVA: 7.0
[2]; 0.2500 kg/ha
  MOOVA: 7.0
Cyperus iria; 0.0320 kg/ha
  CYPIR: 4.0
Cyperus iria; 0.0620 kg/ha
  CYPIR: 4.0
Cyperus iria; 0.1250 kg/ha
  CYPIR: 7.0
Cyperus iria; 0.2500 kg/ha
  CYPIR: 8.0
Sagittaria pygmaea, L.; 0.0320 kg/ha
  SAGPY: 0.0
Sagittaria pygmaea, L.; 0.0620 kg/ha
  SAGPY: 0.0
Sagittaria pygmaea, L.; 0.1250 kg/ha
  SAGPY: 5.0
Sagittaria pygmaea, L.; 0.2500 kg/ha
  SAGPY: 6.0
[3]; 0.0320 kg/ha
  ECHORC: 7.0
[3]; 0.0620 kg/ha
  ECHORC: 7.0
[3]; 0.1250 kg/ha
  ECHORC: 9.0
[3]; 0.2500 kg/ha
  ECHORC: 9.0
[4]; 0.0320 kg/ha
  CYPSE: 0.0
[4]; 0.0620 kg/ha
  CYPSE: 0.0
[4]; 0.1250 kg/ha
  CYPSE: 0.0
[4]; 0.2500 kg/ha
  CYPSE: 0.0

## Cc1ccsc1C=C(C#N)c1nsc2ccc(-n3c(=O)cc(C(F)(F)F)n(C)c3=O)cc12 [Example 457, 1,2-Benzisothiazole-3-acetonitrile, 5-[3,6-dihydro-3-methyl-2,6-dioxo-4-(trifluoromethyl)-1(2H)-pyrimidinyl]-alpha-(3-methyl-2-thenylidene)-]
[1]; 0.0320 kg/ha
  ORYSAT: 0.0
[1]; 0.0620 kg/ha
  ORYSAT: 0.0
[1]; 0.1250 kg/ha
  ORYSAT: 0.0
[1]; 0.2500 kg/ha
  ORYSAT: 3.0
[2]; 0.0320 kg/ha
  MOOVA: 2.0
[2]; 0.0620 kg/ha
  MOOVA: 4.0
[2]; 0.1250 kg/ha
  MOOVA: 7.0
[2]; 0.2500 kg/ha
  MOOVA: 7.0
Cyperus iria; 0.0320 kg/ha
  CYPIR: 0.0
Cyperus iria; 0.0620 kg/ha
  CYPIR: 3.0
Cyperus iria; 0.1250 kg/ha
  CYPIR: 5.0
Cyperus iria; 0.2500 kg/ha
  CYPIR: 7.0
Sagittaria pygmaea, L.; 0.0320 kg/ha
  SAGPY: 0.0
Sagittaria pygmaea, L.; 0.0620 kg/ha
  SAGPY: 0.0
Sagittaria pygmaea, L.; 0.1250 kg/ha
  SAGPY: 3.0
Sagittaria pygmaea, L.; 0.2500 kg/ha
  SAGPY: 3.0
[3]; 0.0320 kg/ha
  ECHORC: 5.0
[3]; 0.0620 kg/ha
  ECHORC: 7.0
[3]; 0.1250 kg/ha
  ECHORC: 9.0
[3]; 0.2500 kg/ha
  ECHORC: 9.0
[4]; 0.0320 kg/ha
  CYPSE: 0.0
[4]; 0.0620 kg/ha
  CYPSE: 0.0
[4]; 0.1250 kg/ha
  CYPSE: 0.0
[4]; 0.2500 kg/ha
  CYPSE: 0.0

From patent publication EP0908457B1, “3-(1,2-benzisothiazol- and isoxazol-5-Y1)-2,4(1H,3H)-pyrimidinedione or thione and 3-(1,2-benzisothiazol- and isoxazol-5-y1)-4(3H)-pyrimidinone or thione herbicidal agents” (BASF AKTIENGESELLSCHAFT, priority 1997, dated 1999)
